Results from patent US7217730B2, “Method for the use of pyranoindole derivatives to treat infection with Hepatitis C virus” (Wyeth, priority 2002, dated 2007).
Like-named read-outs stand apart in the source and are kept apart here.

Target: T1, NS5B from the BK strain (genotype 1b) (Hepatitis C virus genotype 1b, UniProt P26663)
T1 construct: NS5B from the BK strain (genotype 1b) is expressed in E. coli as a protein in which the 21 C-terminal amino acids are replaced; made in house; host or cells: E. coli
Experiment: Hepatitis C polymerase inhibition, NS5B BK strain, 33P-GTP filter assay
Assay type: biochemical
Conditions: for inhibition at 20 µM: read-out: HCV pol % inh at 20 μM; for IC50: NS5B BK strain, read-out: HCV pol BK IC50
Text: The ability of the compounds of the present invention to inhibit Hepatitis C Polymerase was established by the following experimental procedure: • NS5B from the BK strain (genotype 1b) is expressed in E. coli as a protein in which the 21 C-terminal amino acids are replaced with a short linker and a hexahistidine tag ([…]). The purified protein is mixed with radioactive nucleotides and allowed to replicate a heteropolymeric RNA substrate, primed by an endogenous short hairpin, resulting in an approximately 760 nt product. The radioactive product is captured on a filter and quantitated after removal of the unincorporated nucleotides.
Reagents: • 10 mM uridine 5′-triphosphate (UTP) (Promega # p116B) • 10 mM adenine 5′-triphosphate (ATP) (Promega # p113B) • 10 mM cytidine 5′-triphosphate (CTP) (Promega # p114B) • 10 mM guanine 5′-triphosphate (GTP) (Promega # p115B) • Bovine Serum Albumin (BSA) 10 mg/ml NEB (100× at 10 mg/ml) #007-BSA • RNasein (Promega #N251X) 40 U/μl • A-[33P]-GTP (NEN-easytides NEG/606H 3000 Ci/mmol, 370 MBq/ml, 10 mCi/ml) • Falcon polypropylene 96 well plates (Becton Dickinson # 351190) • Millipore Multiscreen assasy system-96 well-filtration plate #MADE NOB 50 • Optiphase Supermix (Wallac) formulated by Fisher • Millipore Multiscreen liner for use in microbeta 1450-106 casette [(Wallac) Perkin Elmer #1450-433] • 1 M(N-[2-hydroxyethyl]piperazine-N′-[2-ethanesulfonic acid]) (HEPES), pH 7.3 • Amersham Pharmacia Biotec (US16924-500 ml) • 1 M MgCl2 (SIGMA #M1028) • Dithiothreitol (DTT) (solid) (SIGMA #D9779) • RNase free water (GIBCO-BRL #10977-023) • Dimethyl sulfoxide (Aldrich #27685-5) • Basilen Blue (Sigma, B5520) • 0.5M ethylenediaminetetraacetic acid (EDTA), pH 8 (GIBCO-BRL #15575-020) • Dibasic sodium phosphate (7-hydrate) (Na2HPO4.7H2O; Baker#3824-07) • Phosphoric acid (Baker, #0262.02)
Further reagent preparation: • 0.5 M Na Phosphate buffer. Per liter, weigh 134 gr Na2HPO4.7H2O, add water to 900 ml. Adjust pH to 7.0 with phosphoric acid. Top off with water to 1 L. • Dilute nucleotides 1:1000 to 10 μM (GTP and CTP) or 1:100 to 100 μM (ATP and UTP) into RNase free water.
Procedure: • (1) Compounds 10 μl at 10 μg/ml in 15% dimethylsulfoxide (DMSO)
When starting from 100 μg/ml compound stock in […]: • Dispense 5 μl 30% DMSO per well • Dispense 5 μl compound (100 μg/ml) per well.
When starting from 50 μg/ml compound stock in 15% DMSO: • Add 10 μl compound per well. • (2) Enzyme Mix:
Add 20 μl enzyme mix into each well of the assay plate. Incubate compound and enzyme at room temperature for 15 minutes • (3) Template mix—prepare ahead
Spin down a tube of RNA (5 μg/tube stored in 75% ethanol and 0.3 M sodium acetate) in a microcentrifuge for 20 minutes at 4° C. One tube is enough for 1–1.5 plates. Remove as much ethanol from the tube as possible by inverting the tube. Be gentle, pellet RNA may not adhere to the tube. Vacuum dry the RNA. Resuspend the RNA by adding 1 ml of DEPC water, close the cap of the tube tightly. To dissolve RNA, incubate RNA solution on ice for ˜60 minutes and gently vortex. Spin briefly to ensure all RNA solution is down to the bottom of the tube before opening cap. Gently transfer RNA solution into a 5 ml or larger tube. Add another 3 ml of DEPC water (total 4 ml of volume).
Add the following volumes of reagents
Add 20 μl template mix per reaction (i.e. 20 ng of pOF per reaction or ˜3 nM) • (4) Incubate reaction at room temperature (22–25° C.) for 2 hours. • (5) Stop reaction by adding 50 μl of 170 mM EDTA. • Final concentration of EDTA is 85 mM. • (6) Prewet filters of Millipore multiscreen assay plate by adding 200 μl of 0.5 M sodium phosphate buffer, pH 7.0 into each well. Let stand at room temperature for 2–3 minutes. • (7) Place the multiscreen filter plate onto a Millipore Manifold and turn on vacuum to allow buffer to flow through. Turn off vacuum. Transfer 80 μl of the reaction product into each well of the filter plate. Let stand for 2–3 minutes. […]

T1 sequence (P26663 2420-2989): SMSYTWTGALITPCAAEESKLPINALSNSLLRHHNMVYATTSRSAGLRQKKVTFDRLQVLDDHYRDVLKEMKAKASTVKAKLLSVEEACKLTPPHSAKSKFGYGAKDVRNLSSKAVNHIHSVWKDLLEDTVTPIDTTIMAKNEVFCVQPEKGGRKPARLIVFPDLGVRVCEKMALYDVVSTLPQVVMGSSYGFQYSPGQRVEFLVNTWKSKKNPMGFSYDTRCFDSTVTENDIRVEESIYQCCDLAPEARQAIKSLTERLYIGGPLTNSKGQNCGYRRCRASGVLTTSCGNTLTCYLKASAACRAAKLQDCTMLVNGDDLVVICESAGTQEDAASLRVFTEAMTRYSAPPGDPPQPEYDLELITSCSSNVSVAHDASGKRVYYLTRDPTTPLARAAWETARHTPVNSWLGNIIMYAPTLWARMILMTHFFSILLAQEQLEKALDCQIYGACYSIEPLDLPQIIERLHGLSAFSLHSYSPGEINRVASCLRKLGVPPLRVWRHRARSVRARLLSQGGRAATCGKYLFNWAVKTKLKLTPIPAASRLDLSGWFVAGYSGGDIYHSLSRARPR

SMILES	inhibition at 20 µM (Table 1A, 20 μM compound)	IC50 (Table 1A)	inhibition at 20 µM
CCCC1(CC(=O)O)OCCc2c1[nH]c1cccc(-c3ccc(C)cc3)c21 (stereo not shown) [Example 32, [5-(4-methylphenyl)-1-propyl-1,3,4,9-tetrahydropyrano[3,4-b]indol-1-yl]acetic acid]	< 5%	> 20 µM	
CCCC1(CC(=O)O)OCCc2c1[nH]c1cccc(-c3ccc(OC)cc3)c21 (stereo not shown) [Example 33, [5-(4-methoxyphenyl)-1-propyl-1,3,4,9-tetrahydropyrano[3,4-b]indol-1-yl]acetic acid]	< 5%	> 20 µM	
CCCC1(CC(=O)O)OCCc2c1[nH]c1cccc(-c3ccc(Cl)cc3)c21 (stereo not shown) [Example 34, (5-(4-chlorophenyl)-1-propyl-1,3,4,9-tetrahydropyrano[3,4-b]indol-1-yl]acetic acid]	5%	> 20 µM	
CCCC1(CC(=O)O)OCCc2c1[nH]c1cccc(-c3ccc(Cl)cc3Cl)c21 (stereo not shown) [Example 35, [5-(2,4-dichlorophenyl)-1-propyl-1,3,4,9-tetrahydropyrano[3,4-b]indol-1-yl]acetic acid]	35%	> 20 µM	
CCCC1(CC(=O)O)OCCc2c1[nH]c1cccc(-c3ccc(C(F)(F)F)cc3)c21 (stereo not shown) [Example 36, {1-propyl-5-[4-(trifluoromethyl)phenyl]-1,3,4,9-tetrahydropyrano[3,4-b]indol-1-yl}acetic acid]	4%	> 20 µM	
CCCC1(CC(=O)O)OCCc2c1[nH]c1cccc(-c3cccs3)c21 (stereo not shown) [Example 37, (1-propyl-5-thien-2-yl-1,3,4,9-tetrahydropyrano[3,4-b]indol-1-yl)acetic acid]	28%	> 20 µM	
CCCC1(CC(=O)O)OCCc2c1[nH]c1cccc(-c3ccc4ccccc4c3)c21 (stereo not shown) [Example 38, [5-(2-naphthyl)-1-propyl-1,3,4,9-tetrahydropyrano[3,4-b]indol-1-yl]acetic acid]	11%	> 20 µM	
CCCC1(CC(=O)O)OCCc2c1[nH]c1cccc(-c3ccc(-c4ccccc4)cc3)c21 (stereo not shown) [Example 39, [5-(1,1′-biphenyl-4-yl)-1-propyl-1,3,4,9-tetrahydropyrano[3,4-b]indol-1-yl]acetic acid]	7%	> 20 µM	
CCCC1(CC(=O)O)OCCc2c1[nH]c1cccc(-c3ccco3)c21 (stereo not shown) [Example 40, [5-(2-furyl)-1-propyl-1,3,4,9-tetrahydropyrano[3,4-b]indol-1-yl]acetic acid]	27%	> 20 µM	
CCCC1(CC(=O)O)OCCc2c1[nH]c1cccc(-c3ccc(Br)cc3)c21 (stereo not shown) [Example 41, [5-(4-bromophenyl)-1-propyl-1,3,4,9-tetrahydropyrano[3,4-b]indol-1-yl]acetic acid]	13%	> 20 µM	
CCCC1(CC(=O)O)OCCc2c1[nH]c1cccc(-c3ccccc3C)c21 (stereo not shown) [Example 42, [5-(2-methylphenyl)-1-propyl-1,3,4,9-tetrahydropyrano[3,4-b]indol-1-yl]acetic acid]	31%	> 20 µM	
CCCC1(CC(=O)O)OCCc2c1[nH]c1cccc(-c3ccccc3OC)c21 (stereo not shown) [Example 43, [5-(2-methoxyphenyl)-1-propyl-1,3,4,9-tetrahydropyrano[3,4-b]indol-1-yl]acetic acid]		> 20 µM	83%
CCCC1(CC(=O)O)OCCc2c1[nH]c1cccc(-c3ccccc3Cl)c21 (stereo not shown) [Example 44, [5-(2-chlorophenyl)-1-propyl-1,3,4,9-tetrahydropyrano[3,4-b]indol-1-yl]acetic acid]	41%	> 20 µM	
CCCC1(CC(=O)O)OCCc2c1[nH]c1cccc(-c3ccccc3C(F)(F)F)c21 (stereo not shown) [Example 45, (1-propyl-5-[2-(trifluoromethyl)phenyl]-1,3,4,9-tetrahydropyrano[3,4-b]indol-1-yl)acetic acid]	14%	> 20 µM	
